Data published in patent publication US20060079453A1, “Hla binding peptides and their uses” (priority 2002, published 2006).
No end group written: not given here.

Key:
Assay in all cases: biochemical
Format in all cases: binding
HLA-DR DRB1*0101 (DR1) = HLA-DR DRB1*0101 (DR1) (Homo sapiens, UniProt P01903+P01911, A100R/D57E/F55L/F60I/F76Y/I96L/L162R/M171V/P40L/Q125E/R42F/V115G/Y59C); conditions: DRB1 *0101
HLA-DR DRB1*0301 (DR3) = HLA-DR DRB1*0301 (DR3) (Homo sapiens, UniProt P01903+P01911, A100K/A102G/A103R/A169T/F55Y/I96L/K41T/L162R/M171V/P40S/Q125H/Q178H/Q39Y/R42S/S66N/T106N/T262R/W38E/Y61H)
Chain of HLA-DR DRB1*0301 (DR3) (P01903 26-254 limits assumed, other chains not shown): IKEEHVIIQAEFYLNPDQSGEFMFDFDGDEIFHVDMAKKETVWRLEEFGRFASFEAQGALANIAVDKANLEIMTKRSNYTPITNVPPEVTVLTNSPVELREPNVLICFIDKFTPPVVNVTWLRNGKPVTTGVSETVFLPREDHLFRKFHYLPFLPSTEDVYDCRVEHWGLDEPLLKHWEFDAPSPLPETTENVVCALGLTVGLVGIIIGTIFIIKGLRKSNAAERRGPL

HLA-DR DRB1*0401 (DR4) = HLA-DR DRB1*0401 (DR4) (Homo sapiens, UniProt P01903+P01911, A100K/A169T/F76Y/I96L/K127E/L162R/M171V/N62H/P40V/Q125Y/R42H/S133A/S149N/S66Y/V115G/V209L/W38E); conditions: DRB1 *0401
HLA-DR DRB1*0405 (DR4) = HLA-DR DRB1*0405 (DR4) (Homo sapiens, UniProt P01903+P01911, A100R/A169T/D86S/F76Y/I96L/K127E/L162R/M171V/N62H/P40V/Q125Y/R42H/S133A/S149N/S66Y/V115G/V209L/W38E); conditions: DRB1 *0405
HLA-DR DRB1*0802 (DR8) = HLA-DR DRB1*0802 (DR8) (Homo sapiens, UniProt P01903+P01911, A100R/A103L/A169T/F76Y/H45Y/I96F/K41T/L162R/M171V/P40S/Q125H/Q178H/Q39Y/Q99D/R218S/R42G/S66Y/V115G/W38E)
HLA-DR DRB1*0901 (DR9) = HLA-DR DRB1*0901 (DR9) (Homo sapiens, UniProt P01903+P01911, A100R/A103E/D57H/D86V/F55Y/F60I/F76Y/I96F/K127E/L162R/M171V/P40D/Q125H/Q99R/R33Q/R42F/S133A/S66N/T210M/V115G/W38K/Y107V/Y59G/Y89S); conditions: DRB1 *0901
HLA-DR DRB1*1101 (DR11) = HLA-DR DRB1*1101 (DR11) (Homo sapiens, UniProt P01903+P01911, A100R/A169T/A87E/I96F/K41T/L162R/M171V/P40S/Q125H/Q178H/Q39Y/Q99D/R42S/S66Y/T262R/V115G/W38E); conditions: DRB1 *1101
Chain of HLA-DR DRB1*1101 (DR11) (P01903 26-254 limits assumed, other chains not shown): as above

HLA-DR DRB1*1302 (DR13) = HLA-DR DRB1*1302 (DR13) (Homo sapiens, UniProt P01903+P01911, A100E/A169T/K41T/L162R/M171V/P40S/Q125H/Q178H/Q39Y/Q99D/R42S/S66N/T262R/V115G/W38E/Y61H); conditions: DRBI *1302
Chain of HLA-DR DRB1*1302 (DR13) (P01903 26-254 limits assumed, other chains not shown): as above

HLA-DR DRB3*0101 (DR52) = HLA-DR DRB3*0101 (DR52) (Homo sapiens, UniProt P01903+P79483)
HLA-DR DRB4*0101 (DR53) = HLA-DR DRB4*0101 (DR53) (Homo sapiens, UniProt P01903+P13762, G164S); conditions: DRB4 *0101
HLA-DR DRB5*0101 (DR51) = HLA-DR DRB5*0101 (DR51) (Homo sapiens, UniProt P01903+Q30154); conditions: DRB5 *0101
HLA-DR DRB1*0701 (DR7) = HLA-DR DRB1*0701 (DR7) (Homo sapiens, UniProt P01903+P01911, A100R/A102G/A103Q/D57E/D86V/E43K/F76Y/K127E/L162R/M171V/P40G/Q125H/Q99D/R33Q/R42Y/R54Q/S133A/S66F/T210M/V115G/Y107V/Y59L/Y89S); conditions: DRB1 *0701
HLA-DR DRB1*1501 (DR15) = HLA-DR DRB1*1501 (DR15) (Homo sapiens, UniProt P01903+P01911); conditions: DRBI *1501

Sequence | IC50 (HLA-DR DRB1*0101 (DR1)) [µM] | IC50 (HLA-DR DRB1*0301 (DR3)) [µM] | IC50 (HLA-DR DRB1*0401 (DR4)) [µM] | IC50 (HLA-DR DRB1*0405 (DR4)) [µM] | IC50 (HLA-DR DRB1*0802 (DR8)) [µM] | IC50 (HLA-DR DRB1*0901 (DR9)) [µM] | IC50 (HLA-DR DRB1*1101 (DR11)) [µM] | IC50 (HLA-DR DRB1*1302 (DR13)) [µM] | IC50 (HLA-DR DRB3*0101 (DR52)) [µM] | IC50 (HLA-DR DRB4*0101 (DR53)) [µM] | IC50 (HLA-DR DRB5*0101 (DR51)) [µM] | IC50 (HLA-DR DRB1*0701 (DR7)) [µM] | IC50 (HLA-DR DRB1*1501 (DR15)) [µM]
FVNQHLCGSDLVEAL [FVNQHLCGSDLVEAL] | 0.117 | > 74.8 | 19.2 | 14.9 | > 54.4 | > 63 | > 1110 | 20.2 | 10 | 24.5 | > 43.3 |  | 
EQTTTSITSLYQLEN | 19 | > 144 | 0.17 | 0.272 | > 54.4 | 17.4 | > 10.5 |  | > 18.7 | 29.6 | 48.5 | 2.23 | 
QTQKLLWQLNGRLEY | 0.032 | 3.55 | 0.055 | 0.086 | 2.04 |  | 20.7 | 0.121 | 6.58 | 0.088 |  | 3.1 | 0.02
QCQKLLWQLNGRLEY |  | 133 | 0.36 | 1 | 2.52 | 4.67 | 1.64 |  | 8.71 | 0.209 | 0.924 | 3.7 | 
LFFYRKSVWSKLQSI | 0.019 | 30.2 | 0.913 | 0.084 | 0.065 |  | 0.012 | 0.121 | 5.91 | 1.93 | 0.018 | 0.084 | 0.02
YLVCGERGFFYTDKT |  | 11.8 | > 20.5 | > 30.1 | > 54.4 |  | > 60.6 | 1.01 | 0.616 | 48.1 | > 28.4 | 92.3 | > 25.6
RMSSLHLKRYYGRIL | 0.275 |  | 0.993 | 0.034 | 0.277 | 15 | 1.03 | 2.53 | > 26.2 | 2.26 | 0.491 | 0.283 | 0.0013
YLVTGERGFFYTDKT | 3.26 |  | > 20.5 | > 30.1 | > 25.8 | 2.91 | 16.8 | 17.4 | 0.359 | 30.8 | > 28.4 |  | > 25.6
LYFVKVDVTGAYDTI | 0.016 | 0.0096 | 0.0028 | 0.014 | 0.413 |  | 0.221 | 0.079 | 0.016 | 0.022 | 4.96 | 5.89 | 9.75
HLKRYYGRILHYLKA | 0.026 | 3.71 |  | 0.086 | 0.237 | 2.9 |  | 0.868 | 6.61 | 0.022 | 0.0023 | 0.214 | 0.00069
VEALYLVTGERGFFY | 0.0099 | 2.01 | 0.06 | 2.34 | 1.22 | 0.683 | 4.86 |  | 17.2 | 0.013 | 0.078 | 0.195 | 
TSLTFSESIPTPSNR |  | 17.4 | 0.018 | 0.686 | 17.6 | 2.46 | 22.2 | 0.016 | > 95.2 | 3.48 | > 1.34 |  | 
SWLEPVQFLRSVFAN | 0.011 | 167 |  | 0.883 | 3.42 | 4 |  | 4.32 | > 270 |  | 4.81 | 0.589 | 
FLRSVFANSLVYGAS | 0.0043 |  | 0.0067 | 0.059 | 13.4 | 15.1 | 0.973 | 0.0056 | 158 |  | 0.141 | 0.016 | 0.013
RTGQIFKQTYSKFDT | 1.55 | 20.3 | 1.68 | 0.04 | 16.4 |  | 6.96 | 0.066 | 14.7 | 0.201 | 0.064 | 0.046 | 0.155
AVTIYEMLQNIFAIF | 0.017 | 23.7 |  | 0.163 | 6.87 | 4.54 | 29.7 | 0.109 | 2.83 | 1.12 | 14 |  | 
